Results reported in the NIST ThermoML archive (doi:10.1021/je301164d).
Numbers after ± are expanded uncertainties.

Conditions: Fluid (supercritical or subcritical phases)

FC(C(F)(F)F)C(F)(F)F [1,1,1,2,3,3,3-heptafluoropropane]
Conditions | speed of sound [m/s]
280 K, 603.72 kPa | 494.1 ± 0.23
280 K, 1104.4 kPa | 498.92 ± 0.23
280 K, 1604.7 kPa | 503.64 ± 0.23
280 K, 2105 kPa | 508.26 ± 0.23
280 K, 3105.8 kPa | 517.26 ± 0.23
280 K, 4106.2 kPa | 525.95 ± 0.24
280 K, 5107.1 kPa | 534.35 ± 0.24
280 K, 6107.9 kPa | 542.49 ± 0.24
280 K, 7109.3 kPa | 550.4 ± 0.25
280 K, 8110 kPa | 558.07 ± 0.25
280 K, 9110.7 kPa | 565.55 ± 0.25
280 K, 10111 kPa | 572.83 ± 0.26
280 K, 12613 kPa | 590.29 ± 0.26
280 K, 15115 kPa | 606.8 ± 0.27
280 K, 17616 kPa | 622.5 ± 0.27
280 K, 20118 kPa | 637.48 ± 0.28
280 K, 35129 kPa | 716.11 ± 0.31
280 K, 40132 kPa | 739.1 ± 0.32
280 K, 45136 kPa | 760.88 ± 0.33
280 K, 50139 kPa | 781.61 ± 0.34
280.01 K, 25122 kPa | 665.6 ± 0.29
280.01 K, 30125 kPa | 691.69 ± 0.3
299.99 K, 1103 kPa | 417.61 ± 0.2
299.99 K, 1603.4 kPa | 423.61 ± 0.2
299.99 K, 2103.8 kPa | 429.45 ± 0.2
300 K, 3106.4 kPa | 440.66 ± 0.21
300 K, 4107.2 kPa | 451.3 ± 0.21
300 K, 5107.9 kPa | 461.45 ± 0.21
300 K, 6108.6 kPa | 471.17 ± 0.22
300 K, 7109.4 kPa | 480.51 ± 0.22
300 K, 8110.1 kPa | 489.5 ± 0.23
300 K, 9110.1 kPa | 498.18 ± 0.23
300 K, 10111 kPa | 506.58 ± 0.23
300 K, 12612 kPa | 526.5 ± 0.24
300 K, 15114 kPa | 545.09 ± 0.24
300 K, 17616 kPa | 562.57 ± 0.25
300 K, 20118 kPa | 579.11 ± 0.26
300 K, 25122 kPa | 609.85 ± 0.27
300 K, 30126 kPa | 638.04 ± 0.28
300 K, 35129 kPa | 664.19 ± 0.29
300 K, 40132 kPa | 688.66 ± 0.3
300 K, 45136 kPa | 711.71 ± 0.31
300 K, 50139 kPa | 733.55 ± 0.32
320 K, 1104.2 kPa | 332.96 ± 0.17
320 K, 2104.9 kPa | 349.11 ± 0.18
320 K, 3105.5 kPa | 363.82 ± 0.18
320 K, 4105.6 kPa | 377.39 ± 0.19
320 K, 5106.4 kPa | 390.04 ± 0.19
320 K, 6107.1 kPa | 401.94 ± 0.19
320 K, 7107.7 kPa | 413.18 ± 0.2
320 K, 8108.4 kPa | 423.87 ± 0.2
320 K, 9109 kPa | 434.06 ± 0.21
320 K, 10110 kPa | 443.83 ± 0.21
320 K, 12612 kPa | 466.66 ± 0.22
320 K, 15113 kPa | 487.61 ± 0.23
320 K, 17615 kPa | 507.06 ± 0.23
320 K, 20117 kPa | 525.27 ± 0.24
320 K, 25120 kPa | 558.72 ± 0.25
320 K, 30124 kPa | 589.03 ± 0.26
320 K, 35128 kPa | 616.9 ± 0.27
320 K, 40131 kPa | 642.8 ± 0.28
320 K, 45135 kPa | 667.06 ± 0.29
320.01 K, 50138 kPa | 689.95 ± 0.3
340 K, 1603.1 kPa | 249.98 ± 0.14
340 K, 2103.4 kPa | 262.38 ± 0.15
340 K, 3104.1 kPa | 283.96 ± 0.15
340 K, 4104.8 kPa | 302.59 ± 0.16
340 K, 5105.4 kPa | 319.17 ± 0.17
340 K, 6106 kPa | 334.23 ± 0.17
340 K, 7106.7 kPa | 348.1 ± 0.18
340 K, 8108.1 kPa | 361.03 ± 0.18
340 K, 9108.9 kPa | 373.15 ± 0.18
340 K, 10110 kPa | 384.6 ± 0.19
340 K, 12612 kPa | 410.84 ± 0.2
340 K, 15113 kPa | 434.43 ± 0.21
340 K, 17615 kPa | 456 ± 0.21
340 K, 20117 kPa | 475.96 ± 0.22
340 K, 25120 kPa | 512.15 ± 0.23
340 K, 30124 kPa | 544.54 ± 0.25
340 K, 35127 kPa | 574.06 ± 0.26
340 K, 40130 kPa | 601.3 ± 0.27
340 K, 45134 kPa | 626.7 ± 0.28
340 K, 50138 kPa | 650.55 ± 0.29
360 K, 3604.3 kPa | 209.76 ± 0.13
360 K, 4104.8 kPa | 223.69 ± 0.14
360 K, 5105.6 kPa | 247.37 ± 0.14
360 K, 6106.5 kPa | 267.43 ± 0.15
360 K, 7107.4 kPa | 285.07 ± 0.15
360.01 K, 8109.2 kPa | 300.98 ± 0.16
360.01 K, 9110 kPa | 315.53 ± 0.17
360.01 K, 10111 kPa | 329.01 ± 0.17
360.01 K, 12612 kPa | 359.17 ± 0.18
360.01 K, 15114 kPa | 385.62 ± 0.19
360.01 K, 17616 kPa | 409.39 ± 0.2
360.01 K, 20118 kPa | 431.12 ± 0.2
360.01 K, 25122 kPa | 470 ± 0.22
360.01 K, 30125 kPa | 504.36 ± 0.23
360.01 K, 35129 kPa | 535.41 ± 0.24
360.01 K, 40132 kPa | 563.88 ± 0.25
360.01 K, 45135 kPa | 590.29 ± 0.26
360.01 K, 50139 kPa | 615 ± 0.27
380 K, 7107.3 kPa | 224.9 ± 0.14
380 K, 8108.1 kPa | 244.61 ± 0.14
380 K, 9108.9 kPa | 262.08 ± 0.15
380 K, 10110 kPa | 277.88 ± 0.15
380 K, 11110 kPa | 292.38 ± 0.16
380 K, 12111 kPa | 305.84 ± 0.16
380 K, 13112 kPa | 318.45 ± 0.17
380 K, 14112 kPa | 330.32 ± 0.17
380 K, 15113 kPa | 341.58 ± 0.17
380 K, 17615 kPa | 367.5 ± 0.18
380 K, 20117 kPa | 390.9 ± 0.19
380 K, 22618 kPa | 412.36 ± 0.2
380 K, 25120 kPa | 432.25 ± 0.21
380 K, 30123 kPa | 468.39 ± 0.22
380 K, 35127 kPa | 500.79 ± 0.23
380 K, 40130 kPa | 530.34 ± 0.24
380 K, 45134 kPa | 557.64 ± 0.25
380 K, 50137 kPa | 583.09 ± 0.26
400 K, 10108 kPa | 232.81 ± 0.14
400 K, 11109 kPa | 249.04 ± 0.14
400 K, 12109 kPa | 263.93 ± 0.15
400 K, 13110 kPa | 277.75 ± 0.15
400 K, 14111 kPa | 290.67 ± 0.16
400 K, 15112 kPa | 302.83 ± 0.16
400 K, 16112 kPa | 314.36 ± 0.17
400 K, 17113 kPa | 325.31 ± 0.17
400 K, 18114 kPa | 335.78 ± 0.17
400 K, 19115 kPa | 345.8 ± 0.17
400 K, 20116 kPa | 355.43 ± 0.18
400 K, 22618 kPa | 378.04 ± 0.19
400 K, 25119 kPa | 398.88 ± 0.19
400 K, 27621 kPa | 418.29 ± 0.2
400 K, 30123 kPa | 436.5 ± 0.21
400 K, 35126 kPa | 470.02 ± 0.22
400 K, 40130 kPa | 500.46 ± 0.23
400 K, 45133 kPa | 528.48 ± 0.24
400 K, 50137 kPa | 554.55 ± 0.25
420 K, 12108 kPa | 229.23 ± 0.14
420 K, 13109 kPa | 243.75 ± 0.14
420 K, 14110 kPa | 257.31 ± 0.14
420 K, 15111 kPa | 270.06 ± 0.15
420 K, 16111 kPa | 282.11 ± 0.15
420 K, 17112 kPa | 293.55 ± 0.16
420 K, 18113 kPa | 304.45 ± 0.16
420 K, 19114 kPa | 314.88 ± 0.17
420 K, 20115 kPa | 324.88 ± 0.17
420 K, 22617 kPa | 348.3 ± 0.18
420 K, 25118 kPa | 369.82 ± 0.18
420 K, 27620 kPa | 389.82 ± 0.19
420 K, 30122 kPa | 408.54 ± 0.2
420 K, 35125 kPa | 442.89 ± 0.21
420 K, 40129 kPa | 474.01 ± 0.22
420 K, 45133 kPa | 502.59 ± 0.23
420 K, 50136 kPa | 529.12 ± 0.24
420 K, 55140 kPa | 553.96 ± 0.25
420 K, 60143 kPa | 577.36 ± 0.26
420 K, 70150 kPa | 620.64 ± 0.28
420 K, 80158 kPa | 660.12 ± 0.29
420 K, 90165 kPa | 696.59 ± 0.31
